What was measured:
LOX IMVI = assay: Growth inhibition of human LOXIMVI cells incubated for 48 hrs by sulforhodamine B assay; assay type: functional
SK-MEL-28 = assay: Growth inhibition of human SK-MEL-28 cells incubated for 48 hrs by sulforhodamine B assay; assay type: functional; conditions: SK-MEL-28, 48 h
T47D = assay: Growth inhibition of human T47D cells incubated for 48 hrs by sulforhodamine B assay; assay type: functional
NCI-H322M = assay: Growth inhibition of human NCI-H322M cells incubated for 48 hrs by sulforhodamine B assay; assay type: functional
OVCAR-8 = assay: Growth inhibition of human OVCAR8 cells incubated for 48 hrs by sulforhodamine B assay; assay type: functional; conditions: OVCAR-8, 48 h
ACHN = assay: Growth inhibition of human ACHN cells incubated for 48 hrs by sulforhodamine B assay; assay type: functional
SW-620 = assay: Growth inhibition of human SW620 cells incubated for 48 hrs by sulforhodamine B assay; assay type: functional; conditions: SW-620, 48 h
UO-31 = assay: Growth inhibition of human UO31 cells incubated for 48 hrs by sulforhodamine B assay; assay type: functional; conditions: UO-31, 48 h
[1] = biological target: RAF proto-oncogene serine/threonine-protein kinase (Homo sapiens, UniProt P04049); assay: Inhibition of human c-RAF at 10 uM using MEK1 as substrate in presence of [33P]ATP by Hotspot assay relative to control
Chain of RAF proto-oncogene serine/threonine-protein kinase (P04049 whole entry): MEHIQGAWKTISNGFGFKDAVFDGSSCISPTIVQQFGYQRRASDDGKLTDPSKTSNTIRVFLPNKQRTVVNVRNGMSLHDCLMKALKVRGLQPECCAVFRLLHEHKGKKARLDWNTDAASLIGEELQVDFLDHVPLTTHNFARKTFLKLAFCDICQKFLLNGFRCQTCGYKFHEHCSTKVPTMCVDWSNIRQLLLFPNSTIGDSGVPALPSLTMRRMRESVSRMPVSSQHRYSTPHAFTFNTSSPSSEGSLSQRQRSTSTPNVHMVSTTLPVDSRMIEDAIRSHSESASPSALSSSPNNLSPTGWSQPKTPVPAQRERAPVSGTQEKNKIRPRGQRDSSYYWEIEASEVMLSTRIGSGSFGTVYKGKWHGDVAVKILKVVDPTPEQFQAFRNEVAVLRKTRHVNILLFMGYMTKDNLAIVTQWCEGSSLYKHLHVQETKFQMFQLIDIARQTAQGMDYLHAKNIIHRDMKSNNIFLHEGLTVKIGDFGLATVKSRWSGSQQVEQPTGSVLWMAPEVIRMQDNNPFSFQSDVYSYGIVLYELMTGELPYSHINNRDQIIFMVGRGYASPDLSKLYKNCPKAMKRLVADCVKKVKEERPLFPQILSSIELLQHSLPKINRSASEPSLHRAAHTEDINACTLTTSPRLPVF

A498 = assay: Growth inhibition of human A498 cells incubated for 48 hrs by sulforhodamine B assay; assay type: functional; conditions: A498, 48 h
OVCAR-5 = assay: Growth inhibition of human OVCAR5 cells incubated for 48 hrs by sulforhodamine B assay; assay type: functional; conditions: OVCAR-5, 48 h
RPMI-8226 = assay: Growth inhibition of human RPMI8226 cells incubated for 48 hrs by sulforhodamine B assay; assay type: functional; conditions: RPMI-8226, 48 h
NCI-H460 = assay: Growth inhibition of human NCI-H460 cells incubated for 48 hrs by sulforhodamine B assay; assay type: functional; conditions: NCI-H460, 48 h
MDA-MB-435 = assay: Growth inhibition of human MDA-MB-435 cells incubated for 48 hrs by sulforhodamine B assay; assay type: functional; conditions: MDA-MB-435, 48 h
HCC 2998 = assay: Growth inhibition of human HCC2998 cells incubated for 48 hrs by sulforhodamine B assay; assay type: functional; conditions: HCC 2998, 48 h
HCT-116 = assay: Growth inhibition of human HCT116 cells incubated for 48 hrs by sulforhodamine B assay; assay type: functional; conditions: HCT-116, 48 h
RXF 393 = assay: Growth inhibition of human RXF393 cells incubated for 48 hrs by sulforhodamine B assay; assay type: functional; conditions: RXF 393, 48 h
BT-549 = assay: Growth inhibition of human BT549 cells incubated for 48 hrs by sulforhodamine B assay; assay type: functional; conditions: BT-549, 48 h
U-251 = assay: Growth inhibition of human U251 cells incubated for 48 hrs by sulforhodamine B assay; assay type: functional; conditions: U-251, 48 h
SF-539 = assay: Growth inhibition of human SF539 cells incubated for 48 hrs by sulforhodamine B assay; assay type: functional; conditions: SF-539, 48 h
MDA-MB-231 = assay: Growth inhibition of human MDA-MB-231 cells incubated for 48 hrs by sulforhodamine B assay; assay type: functional; conditions: MDA-MB-231, 48 h
Malme-3M = assay: Growth inhibition of human MALME-3M cells incubated for 48 hrs by sulforhodamine B assay; assay type: functional
HCT-15 = assay: Growth inhibition of human HCT15 cells incubated for 48 hrs by sulforhodamine B assay; assay type: functional; conditions: HCT-15, 48 h
EKVX = assay: Growth inhibition of human EKVX cells incubated for 48 hrs by sulforhodamine B assay; assay type: functional
OVCAR-3 = assay: Growth inhibition of human OVCAR3 cells incubated for 48 hrs by sulforhodamine B assay; assay type: functional; conditions: OVCAR-3, 48 h
MOLT-4 = assay: Growth inhibition of human MOLT4 cells incubated for 48 hrs by sulforhodamine B assay; assay type: functional; conditions: MOLT-4, 48 h
A549 = assay: Growth inhibition of human A549/ATCC cells incubated for 48 hrs by sulforhodamine B assay; assay type: functional; conditions: A549, 48 h
SK-OV-3 = assay: Growth inhibition of human SKOV3 cells incubated for 48 hrs by sulforhodamine B assay; assay type: functional; conditions: SK-OV-3, 48 h
IGROV-1 = assay: Growth inhibition of human IGROV1 cells incubated for 48 hrs by sulforhodamine B assay; assay type: functional; conditions: IGROV-1, 48 h
SK-MEL-2 = assay: Growth inhibition of human SK-MEL-2 cells incubated for 48 hrs by sulforhodamine B assay; assay type: functional; conditions: SK-MEL-2, 48 h
OVCAR-4 = assay: Growth inhibition of human OVCAR4 cells incubated for 48 hrs by sulforhodamine B assay; assay type: functional; conditions: OVCAR-4, 48 h
HOP-92 = assay: Growth inhibition of human HOP92 cells incubated for 48 hrs by sulforhodamine B assay; assay type: functional; conditions: HOP-92, 48 h
[2] = read-out: LC50 (the source's name)

COc1cc2cc(Oc3ccc(NC(=O)Nc4cccc(C(F)(F)F)c4)cc3)c(C)nc2cc1OC
GI50 (LOX IMVI): 1.84 µM | TGI (LOX IMVI): 6.61 µM | CC50 (LOX IMVI; [2]): 18.3 µM | GI50 (SK-MEL-28): 1.97 µM | TGI (SK-MEL-28): 8.37 µM | CC50 (SK-MEL-28; [2]): 28.2 µM | GI50 (T47D): 1.61 µM | TGI (T47D): 6.68 µM | CC50 (T47D; [2]): > 50 µM | GI50 (NCI-H322M): 2.84 µM | TGI (NCI-H322M): 16.6 µM | CC50 (NCI-H322M; [2]): > 50 µM | GI50 (OVCAR-8): 1.71 µM | TGI (OVCAR-8): 6.28 µM | CC50 (OVCAR-8; [2]): 19.9 µM | GI50 (ACHN): 1.64 µM | TGI (ACHN): 7.71 µM | CC50 (ACHN; [2]): > 50 µM | GI50 (SW-620): 2.28 µM | LC50 (SW-620): > 50 µM | TGI (SW-620): 11.1 µM | GI50 (UO-31): 1.98 µM | TGI (UO-31): 10.8 µM | CC50 (UO-31; [2]): > 50 µM | inhibition [1]: 99.2% | GI50 (A498): 1.29 µM | TGI (A498): 4.95 µM | CC50 (A498; [2]): 29.7 µM | GI50 (OVCAR-5): 3.02 µM | TGI (OVCAR-5): 13 µM | CC50 (OVCAR-5; [2]): > 50 µM | GI50 (RPMI-8226): 1.05 µM | LC50 (lethal concentration, 50% cell kill) (RPMI-8226): > 50 µM | TGI (RPMI-8226): 2.96 µM | GI50 (NCI-H460): 1.6 µM | TGI (NCI-H460): 6.02 µM | CC50 (NCI-H460; [2]): 34.9 µM | GI50 (MDA-MB-435): 1.63 µM | TGI (MDA-MB-435): 10.1 µM | CC50 (MDA-MB-435; [2]): > 50 µM | GI50 (HCC 2998): 2.59 µM | TGI (HCC 2998): > 50 µM | CC50 (HCC 2998; [2]): > 50 µM | GI50 (HCT-116): 1.46 µM | LC50 (50% lethal concentration) (HCT-116): 20.4 µM | TGI (HCT-116): 5.84 µM | GI50 (RXF 393): 1.63 µM | TGI (RXF 393): 4.97 µM | CC50 (RXF 393; [2]): 26.3 µM | GI50 (BT-549): 1.43 µM | TGI (BT-549): 6.18 µM | CC50 (BT-549; [2]): 28.2 µM | GI50 (U-251): 1.56 µM | TGI (U-251): 5.61 µM | CC50 (U-251; [2]): 17 µM | GI50 (SF-539): 2.48 µM | TGI (SF-539): 8.74 µM | CC50 (SF-539; [2]): 25.4 µM | GI50 (MDA-MB-231): 1.13 µM | TGI (MDA-MB-231): 4.15 µM | CC50 (MDA-MB-231; [2]): 18.6 µM | GI50 (Malme-3M): 1.71 µM | TGI (Malme-3M): 4.9 µM | CC50 (Malme-3M; [2]): 33.8 µM | GI50 (HCT-15): 1.85 µM | LC50 (lethal concentration, 50% net cell kill) (HCT-15): > 50 µM | TGI (HCT-15): 22.2 µM | GI50 (EKVX): 1.48 µM | LC50 (concentration killing 50% of cells) (EKVX): > 50 µM | TGI (EKVX): 6.46 µM | GI50 (OVCAR-3): 2.04 µM | TGI (OVCAR-3): 8.07 µM | CC50 (OVCAR-3; [2]): 39.9 µM | GI50 (MOLT-4): 1.55 µM | LC50 (MOLT-4): > 50 µM | TGI (MOLT-4): 6.87 µM | GI50 (A549): 1.47 µM | TGI (A549): 6.49 µM | CC50 (A549; [2]): 26.6 µM | GI50 (SK-OV-3): 2.06 µM | TGI (SK-OV-3): 10.6 µM | CC50 (SK-OV-3; [2]): > 50 µM | GI50 (IGROV-1): 2.95 µM | TGI (IGROV-1): 24.9 µM | CC50 (IGROV-1; [2]): > 50 µM | GI50 (SK-MEL-2): 1.28 µM | TGI (SK-MEL-2): 2.87 µM | CC50 (SK-MEL-2; [2]): 9.93 µM | GI50 (OVCAR-4): 2.3 µM | TGI (OVCAR-4): 9.7 µM | CC50 (OVCAR-4; [2]): 36 µM | GI50 (HOP-92): 1.26 µM | LC50 (HOP-92): 21.2 µM | TGI (HOP-92): 3.96 µM

Source: ChEMBL document CHEMBL3994622, “Design and synthesis of new RAF kinase-inhibiting antiproliferative quinoline derivatives. Part 2: Diarylurea derivatives” (Eur J Med Chem, 2017)
